Test results from patent publication US20130190407A1, “CALCIUM RECEPTOR-ACTIVE MOLECULES” (NPS Pharmaceuticals, Inc., priority 1991, published 2013).

Legend:
C-cell calcium receptor = target: T1, C-cell calcium receptor (Rattus norvegicus, UniProt P48442); assay: [Ca2+]i in rat medullary thyroid carcinoma C-cell line (44-2 cells); assay type: cell-based; conditions: 1 mM extracellular Ca2+, read-out: EC50 for increase in [Ca2+]i
T1 construct: cultured cell lines expressing the C-cell phenotype (e.g., rat medullary thyroid carcinoma cells; rMTC 6-23 cells); host or cells: rMTC 6-23 rat medullary thyroid carcinoma cells
T1 sequence (P48442 20-1079): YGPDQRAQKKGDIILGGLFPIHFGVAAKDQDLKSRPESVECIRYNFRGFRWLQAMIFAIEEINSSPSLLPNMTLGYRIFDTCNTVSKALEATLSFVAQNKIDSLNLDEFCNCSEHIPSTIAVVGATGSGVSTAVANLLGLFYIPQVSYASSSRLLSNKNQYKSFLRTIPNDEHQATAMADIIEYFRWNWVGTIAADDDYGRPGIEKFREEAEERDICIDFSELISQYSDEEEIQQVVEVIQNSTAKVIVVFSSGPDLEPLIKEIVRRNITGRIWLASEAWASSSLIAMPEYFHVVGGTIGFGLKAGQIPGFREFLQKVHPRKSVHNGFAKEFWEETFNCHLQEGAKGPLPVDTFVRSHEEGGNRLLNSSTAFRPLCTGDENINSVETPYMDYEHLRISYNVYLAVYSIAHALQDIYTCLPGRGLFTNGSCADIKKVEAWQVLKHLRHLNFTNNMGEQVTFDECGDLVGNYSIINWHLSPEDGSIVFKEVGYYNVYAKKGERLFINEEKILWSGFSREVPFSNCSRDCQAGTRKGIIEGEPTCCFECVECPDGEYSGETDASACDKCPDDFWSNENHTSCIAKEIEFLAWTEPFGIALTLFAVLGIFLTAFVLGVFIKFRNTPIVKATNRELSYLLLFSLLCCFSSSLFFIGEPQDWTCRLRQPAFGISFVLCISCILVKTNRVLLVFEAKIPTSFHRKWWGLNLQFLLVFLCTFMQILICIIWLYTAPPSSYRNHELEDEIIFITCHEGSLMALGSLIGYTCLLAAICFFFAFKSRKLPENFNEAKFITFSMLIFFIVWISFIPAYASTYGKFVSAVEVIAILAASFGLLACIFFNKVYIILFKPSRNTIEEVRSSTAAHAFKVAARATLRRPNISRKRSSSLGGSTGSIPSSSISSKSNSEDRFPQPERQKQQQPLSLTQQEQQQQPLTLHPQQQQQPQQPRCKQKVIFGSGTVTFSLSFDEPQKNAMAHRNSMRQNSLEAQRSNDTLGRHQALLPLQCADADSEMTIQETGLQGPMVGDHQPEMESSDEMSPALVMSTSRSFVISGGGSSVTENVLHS
Text: C-cells appear to express a calcium receptor that is structurally similar to that present on parathyroid cells (see Example 31). […] Thus, compounds in this structural series appear to activate the C-cell calcium receptor.

[1] = test system: parathyroidectomized rats; assay: Serum ionized Ca2+ in parathyroidectomized animals; assay type: in vivo, rat
Text: To determine the primary target tissue upon which NPS R-467 acts to cause a hypocalcemic response, the parathyroid glands in rats were surgically removed. Animals receiving a total parathyroidectomy become hypocalcemic and are largely dependent upon dietary calcium to maintain serum Ca^2+ homeostasis.

[2] = target: T2, parathyroid cell calcium receptor (Bos taurus, UniProt P35384); assay: Mobilization of intracellular Ca2+ ([Ca2+]i, fura-2) in bovine parathyroid cells; assay type: cell-based; design: Parathyroid glands were obtained from freshly slaughtered calves (12-15 weeks old); endogenous in cells; host or cells: dissociated primary bovine (calf) parathyroid cells; conditions: EC50 for mobilization of intracellular Ca2+; bovine parathyroid cells
T2 sequence (P35384 20-1085): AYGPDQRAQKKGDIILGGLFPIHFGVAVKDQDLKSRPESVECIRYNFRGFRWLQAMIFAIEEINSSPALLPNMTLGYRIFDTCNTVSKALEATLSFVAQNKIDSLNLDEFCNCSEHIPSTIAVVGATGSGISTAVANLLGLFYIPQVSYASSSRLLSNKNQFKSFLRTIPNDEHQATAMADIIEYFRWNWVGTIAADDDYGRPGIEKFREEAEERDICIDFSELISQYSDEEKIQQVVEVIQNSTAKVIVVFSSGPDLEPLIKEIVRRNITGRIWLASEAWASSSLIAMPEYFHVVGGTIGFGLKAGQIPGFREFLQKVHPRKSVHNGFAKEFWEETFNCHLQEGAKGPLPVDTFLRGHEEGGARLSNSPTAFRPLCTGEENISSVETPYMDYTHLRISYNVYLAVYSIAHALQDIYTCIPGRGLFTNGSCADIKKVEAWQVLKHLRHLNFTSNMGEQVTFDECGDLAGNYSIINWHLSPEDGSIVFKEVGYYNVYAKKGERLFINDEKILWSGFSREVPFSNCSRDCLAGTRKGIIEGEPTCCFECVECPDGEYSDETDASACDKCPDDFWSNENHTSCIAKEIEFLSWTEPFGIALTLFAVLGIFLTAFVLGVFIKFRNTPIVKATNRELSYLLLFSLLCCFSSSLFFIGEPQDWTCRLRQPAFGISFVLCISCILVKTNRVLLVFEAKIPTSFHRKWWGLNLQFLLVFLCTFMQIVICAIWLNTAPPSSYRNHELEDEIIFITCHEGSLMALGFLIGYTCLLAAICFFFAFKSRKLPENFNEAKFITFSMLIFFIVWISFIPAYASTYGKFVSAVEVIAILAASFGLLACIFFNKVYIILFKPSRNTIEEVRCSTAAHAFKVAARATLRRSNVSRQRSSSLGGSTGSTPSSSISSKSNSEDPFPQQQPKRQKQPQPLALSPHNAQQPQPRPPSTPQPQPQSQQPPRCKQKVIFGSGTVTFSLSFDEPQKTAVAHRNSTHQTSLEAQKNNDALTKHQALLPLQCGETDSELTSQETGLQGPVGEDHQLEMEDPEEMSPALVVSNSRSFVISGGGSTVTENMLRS
Protocol: This section describes procedures used to obtain and treat parathyroid cells from calves and humans. […] Human parathyroid glands, were obtained from patients undergoing surgical removal of parathyroid tissue for primary or uremic hyperparathyroidism (uremic HPT), and were treated similarly to bovine tissue.
Glands were trimmed of excess fat and connective tissue and then minced with fine scissors into cubes approximately 2-3 mm on a side. Dissociated parathyroid cells were prepared by collagenase digestion and then purified by centrifugation in Percoll buffer. The resultant parathyroid cell preparation was essentially devoid of red blood cells, adipocytes, and capillary tissue as assessed by phase contrast microscopy and Sudan black B staining. Dissociated and purified parathyroid cells were present as small clusters containing 5 to 20 cells.
The cells were then pelleted, resuspended in the same buffer, but lacking the ester, and incubated a further 15 minutes at 37° C. The cells were subsequently washed twice with PCB containing 0.5 mM CaCl2 and 0.5% BSA and maintained at room temperature (about 20° C.) Immediately before use, the cells were diluted five-fold with prewarmed 0.5 mM CaCl2-PCB to obtain a final BSA concentration of 0.1%. The concentration of cells in the cuvette used for fluorescence recording was 1−2×10^6/ml.
The fluorescence of indicator-loaded cells was measured at 37° C. in a spectrofluorimeter (Biomedical Instrumentation Group, University of Pennsylvania, Philadelphia, Pa.) equipped with a thermostated cuvette holder and magnetic stirrer using excitation and emission wavelengths of 340 and 510 nm, respectively. […] Leakage of dye is dependent on temperature and most occurs within the first 2 minutes after warming the cells in the cuvette. Dye leakage increases only very slowly thereafter. To correct the calibration for dye leakage, cells were placed in the cuvette and stirred at 37° C. for 2-3 minutes. The cell suspension was then removed, the cells pelleted, and the supernatant returned to a clean cuvette. […] This estimate was subtracted from the apparent Fmin.

[3] = target: T3, bovine parathyroid cell calcium receptor (Bos taurus, UniProt P35384); assay: Cl- current in Xenopus oocytes injected with BoPCaR 1; assay type: cell-based
T3 construct: isolation of a single clone (BoPCaR 1) with a cDNA insert of 5.3 kb; expressed in transfected cells
T3 sequence (P35384 20-1085): T2 sequence (P35384 20-1085)
Protocol: Several pharmacological and biochemical criteria were used to identify this clone as encoding a bona fide bovine parathyroid Ca^2+ receptor. […] These responses increased markedly over a period of one to four days after injection of the eggs with cRNA prepared from the BoPCaR 1 cDNA. Furthermore, the ranges of the concentrations of the two cations eliciting this response were very similar to those shown previously to act on bovine parathyroid cells in vitro.
Xenopus oocytes were injected with BoPCaR 1, the 5.3 Kb cDNA encoding a bovine parathyroid cell calcium receptor as described in Example 25. After two to three days, Cl^− currents were examined in the oocytes using a two-electrode voltage clamp.
Xenopus oocytes were injected with BoPCaR 1 as described in Example 25. After two to three days, Cl^− currents were examined in the oocytes using two electrode voltage clamp.

Compound	EC50 (C-cell calcium receptor) [nM]	change in serum ionized Ca2+ ([1]; 10 mg/kg i.p., over 6 hours)	EC50 [2] [nM]	hypocalcemic response ([1]; oral administration)	EC50 ([3]; 0.3 or 1 mM extracellular Ca2+, read-out: EC50 for increases in Cl- current) [nM]	concentrations producing changes in Cl- current [3] [µM]
COc1cccc([C@@H](C)NCCCc2ccccc2)c1 (single isomer, unassigned) [NPS R-467]	1900	did not cause any change in serum ionized Ca^2+ levels	< 5000	–	–	–
COc1cccc([C@@H](C)NCCCc2ccccc2Cl)c1 [NPS R-568, (R)-(+)-N-[3-(2-chlorophenyl)propyl]-α-methyl-3-methoxybenzylamine]	2200	–	< 5000	fails to elicit a hypocalcemic response	~3000	–
NC[C@@H]1O[C@H](O[C@H]2[C@@H](O)[C@H](O[C@@H]3[C@@H](O)[C@H](N)C[C@H](N)[C@H]3O[C@H]3O[C@H](CN)[C@@H](O)[C@H](O)[C@H]3N)O[C@@H]2CO)[C@H](N)[C@@H](O)[C@@H]1O [Neomycin B, neomycin B]	–	–	–	–	–	20 to 100
